# Assay results published in US8729026B2, “Method for inhibiting autophagy of motor neurons” (China Medical University, priority 2012, dated 2014).
# Assays:
# [1] = Phase I metabolism assay, human hepatic microsomes, LC-MS/MS metabolite identification; type: in vitro ADME; settings: butylidenephthalide 2 mM, human hepatic microsomes 0.5 mg/mL, NADPH, 37° C., 60 minutes
# Source text: (§1) It has been known that the medicine metabolic pathway within an organism's liver can be primarily divided into phase I and phase II metabolism. Phase I metabolism occurs mainly by the redox reaction or hydrolysis reaction of medicine, and phase II metabolism occurs mainly by […]. This example simulated the phase I and II metabolism of butylidenephthalide that occur within an organism's liver by respectively mixing butylidenephthalide with hepatic microsomes or cryopreserved hepatocytes in vitro, and the products in the reaction solution were analyzed by liquid chromatograph-tandem mass spectrometer (LC-MS/MS) to identify the metabolites and the metabolic profile. The experimental steps were as follows:
# (§2) Butylidenephthalide (2 mM) was mixed respectively with K3PO4 buffer solution (100 mM, pH7.4) containing human, rats or dogs hepatic micrsomes (0.5 mg/mL). The mixture was maintained at 37° C. for 10 minutes, and then pre-warmed cofactors (NADPH (2 mM) and MgCl2 (3 mM)) were added thereto and the mixture was incubated at 37° C. for 60 minutes. Thereafter, 3-fold volume of acetonitrile containing 0.1% formic acid was added to the mixture to terminate the reaction. The mixture was centrifuged at 13000 rpm for 5 minutes, and the supernatant was then collected and analyzed by LC-MS/MS to identify the metabolites. […]
# [2] = system: LC3-II; assay: Western blotting of autophagy biomarker LC3-II in spinal cord of SOD1-G93A transgenic mice; type: in vivo, mouse; settings: compared with untreated control; oral 500 mg/kg-body weight once daily, sacrificed in extremis; β-actin internal control
# Method: SOD1-G93A transgenic mice (60-day-old) were treated with butylidenephthalide by oral administration, with a dosage of 500 mg/kg-body weight once daily. It has been indicated by research that SOD1-G93A transgenic mice lost its spinal motor neurons because of the significant increase of autophagy during the last phase of amyotrophic lateral sclerosis (which can be seen in In vivo optical imaging of motor neuron autophagy in a mouse model of amyotrophic lateral sclerosis. Autophagy 7:9, 1-8; September 2011, which is entirely incorporated hereinto by reference). Therefore, in this example, the SOD1-G93A transgenic mice in experimental group were sacrificed in extremis to collect their spinal cord, and the proteins were extracted from the spinal cord to perform Western blotting and to analyze the protein biomarker of autophagy, LC3-II, which was used to determine whether autophagy occurred in the lumbar spinal motor neurons of the mice, wherein β-actin was used as an internal control.
# [3] = Phase I metabolism assay, rat hepatic microsomes, LC-MS/MS metabolite identification; type: in vitro ADME; settings: butylidenephthalide 2 mM, rat hepatic microsomes 0.5 mg/mL, NADPH, 37° C., 60 minutes
# Source text: as §1, §2
# [4] = Phase II metabolism assay, rat cryopreserved hepatocytes, LC-MS/MS metabolite identification; type: in vitro ADME; settings: butylidenephthalide 50 μM, 37° C., 6 hours
# Source text: as §1
# (§3) William's E medium containing 5×10^5 thawed human, rat or dog hepatocytes were respectively added into a 12-well culture dish, and the cells were cultured for 6 hours. Then, 0.5 mL of butylidenephthalide (50 μM) was added into the culture dish. After the cells were incubated at 37° C., 95% relative humidity and 5% CO2 for 6 hours, 2 mL of acetonitrile (100%) was added to terminate the reaction. The sample was collected, mixed adequately, and centrifuged at 45000 g, 4° C. for 10 minutes. The supernatant was then collected, dried, and analyzed by LC-MS/MS to identify the metabolites. […]
# [5] = system: spinal motor neurons; assay: Histochemical staining (hematoxylin and eosin): count of spinal motor neurons of SOD1-G93A transgenic mice; type: in vivo, mouse; settings: spinal cord, mice sacrificed in extremis, oral 500 mg/kg-body weight once daily
# Method: SOD1-G93A transgenic mice (60-day-old) were treated with butylidenephthalide by oral administration, with a dosage of 500 mg/kg-body weight once daily. The SOD1-G93A transgenic mice in the experimental group were sacrificed in extremis, and the spinal cord was collected to perform hematoxylin and eosin stain. The number of motor neurons in the spinal cord was observed and counted by using a microscope, and the data was compared with that of the untreated control group.
# [6] = system: SOD1-G93A transgenic mice; assay: Survival of SOD1-G93A transgenic mice (amyotrophic lateral sclerosis model); type: in vivo, mouse; settings: 60-day-old SOD1-G93A transgenic mice, oral, 500 mg/kg-body weight once daily; for Survival days: n = 8, 500 mg/kg
# Source text: It has been known that about 20% of amyotrophic lateral sclerosis patients were associated with mutations in the gene that encodes Cu/Zn superoxide dismutase enzyme (SOD1), and G93A was the major mutation site. […] A SOD1-G93A transgenic mouse will show the symptoms of amyotrophic lateral sclerosis within about 90±5 days postnatal and will die within about 125±5 days postnatal.
# This example used the above SOD1-G93A transgenic mice as the object of study to perform in vivo analysis. SOD1-G93A transgenic mice (60-day-old) were treated with butylidenephthalide (purchased from ECHO Chemical) by oral administration, with a dosage of 500 mg/kg-body weight once daily, wherein the unit “mg/kg-body weight” means the dosage required per kg-body weight.
# [7] = Phase II metabolism assay, human cryopreserved hepatocytes, LC-MS/MS metabolite identification; type: in vitro ADME; settings: butylidenephthalide 50 μM, 37° C., 6 hours
# Source text: as §1, §3
# [8] = system: SOD1-G93A transgenic mice; assay: BBB Locomotor Rating Scale of hind limbs of SOD1-G93A transgenic mice; type: in vivo, mouse; settings: oral, 500 mg/kg-body weight once daily from 60 days of age; normal mice 21 points
# Method: SOD1-G93A transgenic mice (60-day-old) were treated with butylidenephthalide by oral administration, with a dosage of 500 mg/kg-body weight once daily. After the mice were treated for 30 days, the hind limbs of the mice were examined by BBB scale (Basso, Beattie, and Bresnahan (BBB) Locomotor Rating Scale). The BBB scale of the hind limbs of normal mice was 21 points, while the BBB scale of disease-progressed SOD1-G93A transgenic mice decreased from 21 to 0 points, wherein the lower scale represents a more severe action disorder in the mice. BBB scale is used to record the drug efficiency.
# [9] = Phase I metabolism assay, dog hepatic microsomes, LC-MS/MS metabolite identification; type: in vitro ADME; settings: butylidenephthalide 2 mM, dog hepatic microsomes 0.5 mg/mL, NADPH, 37° C., 60 minutes
# Source text: as §1, §2
# [10] = Phase II metabolism assay, dog cryopreserved hepatocytes, LC-MS/MS metabolite identification; type: in vitro ADME; settings: butylidenephthalide 50 μM, 37° C., 6 hours
# Source text: as §1, §3
# [11] = system: NSCs (neural stem cells); assay: Cellular experiment: H2O2-stimulated autophagy of NSCs, LC3-II by Western blotting; type: cell-based, mouse; settings: 10 μg/mL butylidenephthalide for 12 hours, then H2O2 (2500 μM/mL) for 12 hours
# Method: Cellular experiment was performed by using NSCs (neural stem cells) which can differentiate into mouse motor neurons to imitate mouse motor neurons.
# NSCs were incubated in a culture dish (10 cm in diameter). The cells were washed with PBS when grown to a density of 60% confluence, and treated with different concentrations of butylidenephthalide for 12 hours. The cells were then treated with H2O2 (2500 μM/mL) for 12 hours to stimulate the autophagy of cells. Then, the cells were collected and the proteins were extracted, and the protein expression level of LC3-II in NSC was analyzed by SDS-PAGE and Western blotting.
smiles,measurement,setting,value
CCCC=C1OC(=O)c2ccccc21 [butylidenephthalide],metabolites produced (phase I metabolism),[1],compounds (2) to (9)
same,"protein expression level of LC3-II and pLC3-II in cervical, thoracic and lumbar spinal cord",[2],significantly decreased
same,metabolites produced (phase I metabolism),[3],compounds (2) to (9)
same,metabolites produced (phase II metabolism),[4],compounds (11) to (14)
same,The number of motor neurons,[5]; control group 3 ± 3.1,24
same,The number of motor neurons,"[5]; control group 3 ± 3.1, listed as n-BP",24 ± 4.2
same,life lengthened as compared to untreated control group,[6],about 22±2 days
same,Survival days,[6],about 149±4.39 days
same,Survival days,[6]; listed as n-BP,149 ± 4.39 days
same,metabolites produced (phase II metabolism),[7],compounds (11) to (14)
same,"BBB scale of the hind limbs, after 135 days (decreased rapidly)",[8],16 to 0 points
same,"BBB scale of the hind limbs, from 125 to 135 days (decreased slowly)",[8],21 to 16 points
same,metabolites produced (phase I metabolism),[9],compounds (2) to (9)
same,metabolites produced (phase II metabolism),[10],compounds (11) to (14)
same,protein expression level of LC3-II in NSC,[11],decrease the protein expression level of LC3-II
